ChEMBL document CHEMBL4417631, “Oral peptide inhibitors of interleukin-23 receptor and their use to treat inflammatory bowel diseases” (2017)
Where a SMILES comes first, the peptide text is derived from it. [ ]: non-standard residue; d: D form. hLeu = CC(C)CC[C@H](N)C(=O)O

Target: T1, Interleukin-23 receptor (Homo sapiens, UniProt Q5VWK5)
T1 sequence (Q5VWK5 whole entry): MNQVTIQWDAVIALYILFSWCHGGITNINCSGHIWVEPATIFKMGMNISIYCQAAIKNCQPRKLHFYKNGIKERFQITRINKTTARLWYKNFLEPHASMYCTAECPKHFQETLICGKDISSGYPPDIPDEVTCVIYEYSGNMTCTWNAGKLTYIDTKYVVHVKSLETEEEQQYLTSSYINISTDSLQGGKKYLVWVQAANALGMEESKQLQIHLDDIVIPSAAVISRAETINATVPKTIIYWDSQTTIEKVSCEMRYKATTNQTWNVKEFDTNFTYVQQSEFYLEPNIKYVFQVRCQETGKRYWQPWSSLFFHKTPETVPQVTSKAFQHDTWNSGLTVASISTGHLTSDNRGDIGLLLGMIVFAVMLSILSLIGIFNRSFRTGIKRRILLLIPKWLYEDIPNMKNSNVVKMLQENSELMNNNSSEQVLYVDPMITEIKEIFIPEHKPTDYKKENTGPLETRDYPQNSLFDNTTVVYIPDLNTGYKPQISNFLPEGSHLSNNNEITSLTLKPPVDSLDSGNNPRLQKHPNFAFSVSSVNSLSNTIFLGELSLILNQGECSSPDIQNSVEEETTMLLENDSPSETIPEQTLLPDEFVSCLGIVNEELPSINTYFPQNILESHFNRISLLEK
Assay: Inhibition of interleukin-23 binding to human interleukin-23 receptor incubated for 2 hrs by competitive binding ELISA

Row | Compound | IC50 [nM]
1 | COc1ccc([C@@H]2NC(=O)[C@H]([C@@H](C)O)NC(=O)[C@H](CCC(N)=O)NC(=O)[C@@H](NC(C)=O)CCSC[C@@H](C(=O)N[C@@H](Cc3ccc(OCCN)cc3)C(=O)N[C@@H](Cc3ccc4ccccc4c3)C(=O)N[C@@](C)(CCCCN)C(=O)N[C@@H](CCC(=O)O)C(=O)N[C@@H](CC(N)=O)C(=O)NCC(N)=O)NC(=O)[C@H](CCC(N)=O)NC2=O)cc1 | > 3000
2 | CC(C)[C@H](NC(=O)[C@H](Cc1cnc[nH]1)NC(=O)[C@H](Cc1c[nH]c2ccccc12)NC(=O)[C@H](Cc1ccc(O)cc1)NC(=O)[C@H](CS)NC(=O)[C@@H](NC(=O)[C@H](Cc1c[nH]c2ccccc12)NC(=O)[C@@H](NC(=O)[C@H](CCCNC(=N)N)NC(=O)[C@@H](N)CS)[C@@H](C)O)[C@@H](C)O)C(=O)N[C@@H](Cc1ccc(O)cc1)C(=O)NCC(N)=O (H-CRTWTCYWHVYG-NH2) | 500 to 1000
3 | CC(=O)N[C@@H](CS)C(=O)N[C@@H](CCC(N)=O)C(=O)N[C@H](C(=O)N[C@@H](Cc1c[nH]c2ccccc12)C(=O)N[C@@H](CCC(N)=O)C(=O)N[C@@H](CS)C(=O)N[C@@H](CCc1ccc(O)cc1)C(=O)N[C@@H](Cc1c[nH]c2ccccc12)C(=O)N[C@@H](CCC(C)C)C(=O)N[C@@H](CCC(=O)O)C(=O)N[C@@H](CC(N)=O)C(=O)NCC(N)=O)[C@@H](C)O | 6000
4 | CC(=O)NC1CC/C=C\CCC(C(=O)N[C@@H](Cc2ccc(O)cc2)C(=O)N[C@@H](Cc2c[nH]c3ccccc23)C(=O)N[C@@H](CCCNC(=N)N)C(=O)N[C@@H](CCCCN)C(=O)N[C@@H](Cc2ccccc2)C(=O)NCC(=O)NCCOCC(=O)N[C@H](CCCCN)C(N)=O)NC(=O)[C@H](CCC(N)=O)NC(=O)[C@H](Cc2c[nH]c3ccccc23)NC(=O)[C@H]([C@@H](C)O)NC(=O)[C@H](CCCNC(=N)N)NC1=O (stereo not given in full) | 100 to 1000
5 | CC(=O)N[C@@H](CS)C(=O)N[C@@H](CCCNC(=N)N)C(=O)N[C@H](C(=O)N[C@@H](Cc1c[nH]c2ccccc12)C(=O)N[C@@H](CCC(N)=O)C(=O)N[C@@H](CS)C(N)=O)[C@@H](C)O (Ac-CRTWQC-NH2) | > 30000
6 | CC(=O)N[C@@H](CS)C(=O)N[C@@H](CCC(N)=O)C(=O)N[C@H](C(=O)N[C@@H](Cc1c[nH]c2ccccc12)C(=O)N[C@@H](CCC(N)=O)C(=O)N[C@@H](CS)C(=O)N[C@H](C(=O)N[C@@H](Cc1c[nH]c2ccccc12)C(=O)N[C@@H](CCC(C)C)C(=O)N[C@@H](CCC(=O)O)C(=O)N[C@@H](CC(N)=O)C(=O)NCC(N)=O)[C@@H](C)O)[C@@H](C)O | > 30000
7 | CC(=O)N[C@@H](CS)C(=O)N[C@@H](C)C(=O)N[C@@H](CC(=O)O)C(=O)N[C@@H](Cc1c[nH]c2ccccc12)C(=O)N[C@H](C(=O)N[C@@H](CS)C(=O)N[C@@H](Cc1ccc(O)cc1)C(=O)N[C@@H](Cc1c[nH]c2ccccc12)C(=O)N[C@@H](Cc1cnc[nH]1)C(=O)N[C@@H](CCC(=O)O)C(=O)N[C@@H](Cc1cnc[nH]1)C(=O)N[C@@H](CO)C(=O)N[C@@H](CCC(=O)O)C(=O)N[C@@H](CCCNC(=N)N)C(=O)N[C@H](C(=O)NCC(N)=O)C(C)C)C(C)C (Ac-CADWVCYWHEHSERVG-NH2) | 500 to 1000
8 | CC(=O)N[C@@H](CS)C(=O)N[C@@H](CCC(N)=O)C(=O)N[C@H](C(=O)N[C@@H](CCCNC(=N)N)C(=O)N[C@@H](CCC(N)=O)C(=O)N[C@@H](CS)C(=O)N[C@@H](Cc1ccc(O)cc1)C(=O)N[C@@H](Cc1c[nH]c2ccccc12)C(=O)N[C@@H](CCC(C)C)C(=O)N[C@@H](CCC(=O)O)C(=O)N[C@@H](CC(N)=O)C(=O)NCC(N)=O)[C@@H](C)O (Ac-CQTRQCYW[hLeu]ENG-NH2) | > 10000
9 | CC(C)[C@H](NC(=O)[C@H](Cc1c[nH]c2ccccc12)N(C)C(=O)[C@H](CC(=O)O)NC(=O)[C@H](C)NC(=O)[C@@H](N)CS)C(=O)N[C@@H](CS)C(=O)N[C@@H](Cc1ccc(O)cc1)C(=O)N[C@@H](Cc1cccc2ccccc12)C(=O)N[C@@H](Cc1cnc[nH]1)C(=O)N[C@H](C(=O)N[C@@H](Cc1ccccc1)C(=O)O)[C@@H](C)O | > 1000
10 | CC(=O)N[C@@H](CS)C(=O)N[C@H](C(=O)N[C@H](C(=O)N[C@@H](Cc1c[nH]c2ccccc12)C(=O)N[C@@H](CCC(=O)O)C(=O)N[C@@H](CS)C(=O)N[C@@H](Cc1ccc(O)cc1)C(=O)N[C@@H](Cc1c[nH]c2ccccc12)C(=O)N[C@@H](Cc1cnc[nH]1)C(=O)N[C@@H](CCC(=O)O)C(=O)N[C@@H](Cc1ccc(O)cc1)C(=O)NCC(N)=O)[C@@H](C)O)[C@@H](C)O (Ac-CTTWECYWHEYG-NH2) | < 500
11 | CC1CSC[C@@H](C(=O)N[C@@H](Cc2ccc(O)cc2)C(=O)N[C@@H](Cc2c[nH]c3ccccc23)C(=O)N[C@@H](CCCNC(=N)N)C(=O)N[C@@H](CCC(=O)O)C(=O)N[C@@H](CC(N)=O)C(=O)NCC(=O)NCCOCC(=O)N[C@H](CCCCN)C(N)=O)NC(=O)[C@H](CCC(N)=O)NC(=O)[C@H](Cc2c[nH]c3ccccc23)NC(=O)[C@H](CC(=O)O)NC(=O)[C@H](CCC(N)=O)NC1=O (stereo not given in full) | 6000
12 | C[C@@H](O)[C@H](NC(=O)[C@@H](NC(=O)[C@@H](N)CS)[C@@H](C)O)C(=O)N[C@@H](Cc1c[nH]c2ccccc12)C(=O)N[C@@H](CCCCN)C(=O)N[C@@H](CS)C(=O)N[C@@H](Cc1ccc(O)cc1)C(=O)N[C@@H](Cc1c[nH]c2ccccc12)C(=O)N[C@@H](Cc1cnc[nH]1)C(=O)N[C@@H](CCC(N)=O)C(=O)N[C@@H](Cc1ccc(O)cc1)C(=O)NCC(N)=O (H-CTTWKCYWHQYG-NH2) | 500 to 1000
13 | CC(=O)N[C@@H](CS)C(=O)N[C@@H](C)C(=O)N[C@@H](CC(=O)O)C(=O)N[C@@H](Cc1c[nH]c2ccccc12)C(=O)N[C@H](C(=O)N[C@@H](CS)C(=O)N[C@@H](Cc1ccc(O)cc1)C(=O)N[C@@H](Cc1c[nH]c2ccccc12)C(=O)N[C@@H](Cc1cnc[nH]1)C(=O)N[C@@H](CCCNC(=N)N)C(=O)N[C@@H](Cc1cnc[nH]1)C(=O)N[C@@H](C)C(=O)N[C@@H](CC(=O)O)C(=O)N[C@@H](CCCNC(=N)N)C(=O)N[C@H](C(=O)N[C@@H](CCCCN)C(N)=O)C(C)C)C(C)C (Ac-CADWVCYWHRHADRVK-NH2) | < 500
14 | CC(=O)N[C@@H](CS)C(=O)N[C@@H](C)C(=O)N[C@@H](CC(=O)O)C(=O)N[C@@H](Cc1c[nH]c2ccccc12)C(=O)N[C@H](C(=O)N[C@@H](CS)C(=O)N[C@@H](Cc1ccc(O)cc1)C(=O)N[C@@H](Cc1c[nH]c2ccccc12)C(=O)N[C@@H](Cc1cnc[nH]1)C(=O)N[C@H](C(=O)N[C@@H](CCCCN)C(=O)NCC(=O)O)[C@@H](C)O)C(C)C | > 1000

Second part, the molecule after the results:

Row | IC50 [nM] | Compound
15 | 500 to 1000 | CC(=O)N[C@@H](CC(=O)O)C(=O)N[C@H](C(=O)N1CCC[C@H]1C(=O)N[C@@H](CCCNC(=N)N)C(=O)N[C@@H](CS)C(=O)N[C@@H](CCCNC(=N)N)C(=O)N[C@H](C(=O)N[C@@H](Cc1c[nH]c2ccccc12)C(=O)N[C@@H](CCC(=O)O)C(=O)N[C@@H](CS)C(=O)N[C@@H](Cc1ccc(O)cc1)C(=O)N[C@@H](Cc1c[nH]c2ccccc12)C(=O)N[C@@H](Cc1cnc[nH]1)C(=O)N[C@H](C(=O)N[C@@H](Cc1ccccc1)C(=O)NCC(N)=O)[C@@H](C)O)[C@@H](C)O)[C@@H](C)O
16 | < 500 | CC(=O)N[C@@H](CS)C(=O)N[C@@H](CCCNC(=N)N)C(=O)N[C@@H](CC(=O)O)C(=O)N[C@@H](Cc1c[nH]c2ccccc12)C(=O)N[C@@H](CCC(N)=O)C(=O)N[C@@H](CS)C(=O)N[C@@H](Cc1ccc(O)cc1)C(=O)N[C@@H](Cc1c[nH]c2ccccc12)C(=O)N[C@@H](Cc1cnc[nH]1)C(=O)N[C@@H](CCCCN)C(=O)N[C@@H](Cc1ccccc1)C(=O)NCC(=O)NCCOCCC(=O)N[C@H](CCCCN)C(=O)O
17 | > 1000 | CC(=O)N[C@@H](CS)C(=O)N[C@@H](CCC(N)=O)C(=O)N[C@H](C(=O)N[C@@H](Cc1c[nH]c2ccccc12)C(=O)N[C@@H](CCC(N)=O)C(=O)N[C@@H](CS)C(=O)N[C@@H](Cc1ccc(O)cc1)C(=O)N[C@@H](Cc1c[nH]c2ccccc12)C(=O)N[C@H](CCCNC(=N)N)C(=O)N[C@@H](CCC(=O)O)C(=O)N[C@@H](CC(N)=O)C(=O)NCC(=O)NCCOCC(=O)N[C@H](CCCCN)C(N)=O)[C@@H](C)O
18 | > 1000 | CC(=O)N[C@@H](CS)C(=O)N[C@@H](CCCNC(=N)N)C(=O)N[C@@H](CC(=O)O)C(=O)N[C@@H](Cc1c[nH]c2ccccc12)C(=O)N[C@@H](CCC(N)=O)C(=O)N[C@@H](CS)C(=O)N[C@@H](Cc1ccc(O)cc1)C(=O)N[C@@H](Cc1c[nH]c2ccccc12)C(=O)N(C)[C@@H](CCCNC(=N)N)C(=O)N[C@@H](CCCCN)C(=O)N[C@@H](Cc1ccccc1)C(=O)NCC(=O)NCCOCCC(=O)N[C@H](CCCCN)C(N)=O
19 | > 1000 | CC(=O)N[C@H](CCCCN)C(=O)NCCC(=O)N[C@@H](CS)C(=O)N[C@@H](C)C(=O)N[C@@H](CC(=O)O)C(=O)N[C@@H](Cc1c[nH]c2ccccc12)C(=O)N[C@H](C(=O)N[C@@H](CS)C(=O)N[C@@H](Cc1ccc(O)cc1)C(=O)N[C@@H](Cc1c[nH]c2ccccc12)C(=O)N[C@@H](Cc1cnc[nH]1)C(=O)N[C@H](C(=O)N[C@@H](Cc1ccccc1)C(=O)NCC(=O)O)[C@@H](C)O)C(C)C
20 | 500 to 1000 | C[C@@H](O)[C@H](NC(=O)[C@@H](N)CS)C(=O)N[C@@H](CC(=O)O)C(=O)N[C@@H](Cc1c[nH]c2ccccc12)C(=O)N[C@@H](CCCCN)C(=O)N[C@@H](CS)C(=O)N[C@@H](Cc1ccc(O)cc1)C(=O)N[C@@H](Cc1c[nH]c2ccccc12)C(=O)N[C@@H](Cc1cnc[nH]1)C(=O)N[C@@H](CCC(=O)O)C(=O)N[C@@H](Cc1ccccc1)C(=O)NCC(N)=O (H-CTDWKCYWHEFG-NH2)
